Assay results taken from PubChem BioAssay (NCI).
Where “and” joins values, the source holds several entries; their conditions need not be identical. Identical values can stand only once.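 In this assay, cells in 96-well plates receive the compound at five concentrations for 48 hours. Endpoints are linearly interpolated between the surrounding concentrations. GI50: concentration for 50% inhibition of growth. TGI: concentration producing complete growth inhibition.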

What was measured:
Assay in all cases: growth of human tumour cells (NCI), 48 h
[1] = test system: NCI/ADR-RES ovarian
[2] = test system: MCF7 breast
[3] = test system: NCI-H23 lung
[4] = test system: HOP-92 NSCLC
[5] = test system: OVCAR-8 ovarian
[6] = test system: MOLT-4 leukemia
[7] = test system: SF-268 CNS
[8] = test system: SK-OV-3 ovarian
[9] = test system: NCI-H522 lung
[10] = test system: MDA-MB-435

| Structure (SMILES) | TGI [1] | TGI [2] | TGI [3] | TGI [4] | TGI [5] | TGI [6] | TGI [7] | TGI [8] | TGI [9] | TGI [10] [µM] | GI50 [1] | GI50 [2] | GI50 [3] | GI50 [4] | GI50 [5] | GI50 [6] | GI50 [7] | GI50 [8] | GI50 [9] | GI50 [10] [µM] |
| --- | --- | --- | --- | --- | --- | --- | --- | --- | --- | --- | --- | --- | --- | --- | --- | --- | --- | --- | --- | --- |
| COC1/C=C/OC2(C)Oc3c(C)c(O)c4c(c3C2=O)C(=O)C=C(NC(=O)/C(C)=C\C=C\C(C)C(OC=O)C(C)C(O)C(C)C(OC(C)=O)C1C)C4=O (centres undefined) | 49.2 µM | 7.29 µM | 30.6 µM | 28.8 µM | 33.5 µM | 10.8 µM | 37.1 µM | 56.7 µM | 6.33 µM | 33.3 |  |  |  |  |  |  |  |  |  |  |
| COc1cc2cc(Oc3ccc(NC(=O)c4cccc(C(F)(F)F)c4)cc3)c(C)nc2cc1OC | > 100 µM | 24.3 µM | > 100 µM | 33.2 µM | > 100 µM | > 100 µM | > 100 µM | > 100 µM | > 100 µM | > 100 | 4.02 µM | 3.47 µM | 4.11 µM | 3.08 µM | 6.91 µM | 4.72 µM | > 100 µM | > 100 µM | 2.81 µM | 5.39 |
| CSc1ccc(C2=Nn3c(nnc3-c3ccc(F)c(Cl)c3)SC2)cc1 | 22.6 µM | 25.8 µM | > 100 µM | 14.8 µM | > 100 µM | > 100 µM | > 100 µM | 41.9 µM | 21.4 µM | 5.21 | 5.17 µM | 7.54 µM | 37.4 µM | 4 µM | 22.2 µM | 7.2 µM | 75.7 µM | 13.5 µM | 4.38 µM | 1.5 |
| CSc1ccc(/C=C2\CNC/C(=C\c3ccc(SC)cc3)C2=O)cc1 | 150 µg/mL | > 371 µM and 150 µg/mL | > 130 µM and 83.6 µg/mL | 233 µM and 83.2 µg/mL | > 102 µM and 150 µg/mL | > 371 µM and 150 µg/mL | > 141 µM and 150 µg/mL | > 170 µM and 148 µg/mL | > 161 µM and 63.5 µg/mL | > 371 | 150 µg/mL | > 371 µM and 58.8 µg/mL | 21.2 µg/mL | 31.9 µM and 27 µg/mL | 116 µg/mL | 150 µg/mL | 44 µg/mL | 77.8 µg/mL | 22.3 µg/mL |  |
| CC(C)(C)OC(=O)NCC(C#N)CNC(=O)OC(C)(C)C | > 100 µM | > 100 µM | > 100 µM | > 100 µM | > 100 µM | > 100 µM | > 100 µM | > 100 µM | > 100 µM | > 100 |  |  |  |  |  |  |  |  |  |  |
| CNC(=O)Nc1ccc(-c2nc(N3CCOCC3)nc3c2cnn3C2CCOCC2)cc1 | > 22.5 µM | > 100 µM | > 100 µM | 0.526 µM | 6.47 µM | > 26.8 µM | > 51.3 µM | 0.685 µM | > 100 µM | 0.821 | 0.511 µM | 0.0784 µM | 0.267 µM | 0.0371 µM | 0.247 µM | 0.355 µM | 0.284 µM | 0.12 µM | 0.43 µM | 0.168 |
| Cc1cc2c(cc1C)NC1=C(N2)OC(c2c[nH]c3ccc(COc4ccccc4)cc23)C1=O (centres undefined) | > 100 µM | > 100 µM | > 100 µM | > 100 µM | > 100 µM | > 100 µM | > 100 µM | > 100 µM | > 100 µM | > 100 |  |  |  |  |  |  |  |  |  |  |
| Cc1cc(N(CCNc2ccnc3cc(Cl)ccc23)Cc2ccc3c(c2)OCO3)nc(N2CCN(C)CC2)n1 | 14.7 µM | 10.9 µM | 22.3 µM | 2.96 µM | 11.2 µM | 8.36 µM | 7.89 µM | 21.6 µM | 3.81 µM | 3.07 | 3.26 µM | 2.4 µM | 6.39 µM | 1.29 µM | 3.18 µM | 2.09 µM | 2.42 µM | 9.55 µM | 1.85 µM | 1.61 |
| COc1cc(-c2oc3ccccc3c(=O)c2O)cc(OC)c1OC | > 100 µM | > 100 µM | > 100 µM | 44 µM | > 100 µM | > 100 µM | > 100 µM | > 100 µM | > 80.3 µM | > 100 |  |  |  |  |  |  |  |  |  |  |
| CC1(C)N=C(N)N=C(N)N1c1ccc(CCc2ccccc2)c(Cl)c1 | > 100 µM | 13 µM | 15 µM | 9.51 µM | 13.6 µM | 13.5 µM | 14.3 µM | 18.4 µM | 12.7 µM | 15.7 | 37 µM | 0.058 µM | 0.0791 µM | 1.14 µM | 0.0897 µM | 0.0648 µM | 0.0552 µM | 1.04 µM | 0.236 µM | 0.0528 |
